Measured values as given in PubChem BioAssay (NCI).
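Interpolation was linear, between the two tested concentrations surrounding the appropriate level; five concentrations were tested over 48 hours in 96-well plates. GI50: concentration for 50% inhibition of growth. The concentration for full growth arrest is given as TGI.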

Key:
Assay in all cases: NCI anticancer screen, dose series, 48 h
[1] = test system: LOX IMVI melanoma
[2] = test system: SK-OV-3 ovarian
[3] = test system: OVCAR-8 ovarian
[4] = test system: MCF7 breast
[5] = test system: KM12 colon
[6] = test system: OVCAR-5 ovarian
[7] = test system: HOP-92 NSCLC
[8] = test system: SR leukemia
[9] = test system: NCI-H460 lung
[10] = test system: 786-0 renal
[11] = test system: SK-MEL-5 melanoma
[12] = test system: PC-3 prostate
[13] = test system: ACHN renal
[14] = test system: UACC-62 melanoma
[15] = test system: HL-60(TB) leukemia
[16] = test system: EKVX NSCLC
[17] = test system: MALME-3M melanoma
[18] = test system: NCI-H23 lung
[19] = test system: A549 NSCLC
[20] = test system: UO-31 renal
[21] = test system: DU-145 prostate
[22] = test system: K-562 leukemia
[23] = test system: NCI-H226 lung
[24] = test system: T-47D breast
[25] = test system: HCT-116 colon
[26] = test system: TK-10 renal
[27] = test system: HS 578T breast
[28] = test system: IGROV1 ovarian
[29] = test system: U251 CNS
[30] = test system: SF-268 CNS
[31] = test system: OVCAR-4 ovarian
[32] = test system: MDA-MB-435
[33] = test system: NCI/ADR-RES ovarian
[34] = test system: SK-MEL-28 melanoma
[35] = test system: RXF 393 renal
[36] = test system: HT29 colon
[37] = test system: CCRF-CEM leukemia
[38] = test system: SF-539 CNS
[39] = test system: M14 melanoma
[40] = test system: NCI-H522 lung
[41] = test system: HOP-62 NSCLC
[42] = test system: A498 renal
[43] = test system: SNB-19 CNS
[44] = test system: MOLT-4 leukemia
[45] = test system: MDA-MB-231 breast
[46] = test system: SK-MEL-2 melanoma
[47] = test system: SW-620 colon
[48] = test system: SN12C renal
[49] = test system: SF-295 CNS
[50] = test system: BT-549 breast
[51] = test system: COLO 205 colon
[52] = test system: OVCAR-3 ovarian
[53] = test system: CAKI-1 renal
[54] = test system: HCC-2998 colon
[55] = test system: RPMI-8226 leukemia
[56] = test system: UACC-257 melanoma
[57] = test system: HCT-15 colon
[58] = test system: SNB-75 CNS

COc1cc2c(cc1OC)-c1c(c3ccc([N+](=O)[O-])cc3c(=O)n1CCCN)C2=O
GI50 [1]: 325 nM
TGI [1]: 1170 nM
GI50 [2]: 8810 nM
TGI [2]: 20200 nM
GI50 [3]: 1010 nM
TGI [3]: 4490 nM
GI50 [4]: 54.5 nM
TGI [4]: 7090 nM
GI50 [5]: 2100 nM
TGI [5]: 4920 nM
GI50 [6]: 3460 nM
TGI [6]: 9540 nM
GI50 [7]: 7290 nM
TGI [7]: 16500 nM
GI50 [8]: 38.6 nM
TGI [8]: 346 nM
GI50 [9]: 403 nM
TGI [9]: 8970 nM
GI50 [10]: 716 nM
TGI [10]: 1840 nM
GI50 [11]: 2500 nM
TGI [11]: 8470 nM
GI50 [12]: 6100 nM
TGI [12]: 12300 nM
GI50 [13]: 242 nM
TGI [13]: 4040 nM
GI50 [14]: 1950 nM
TGI [14]: 10800 nM
GI50 [15]: 1280 nM
TGI [15]: 3380 nM
GI50 [16]: 7750 nM
TGI [16]: 18300 nM
GI50 [17]: 5310 nM
TGI [17]: 16400 nM
GI50 [18]: 548 nM
TGI [18]: 1550 nM
GI50 [19]: 395 nM
TGI [19]: 1680 nM
GI50 [20]: 351 nM
TGI [20]: 3590 nM
GI50 [21]: 684 nM
TGI [21]: 1370 nM
GI50 [22]: 955 nM
TGI [22]: 2650 nM
GI50 [23]: 3610 nM
TGI [23]: 12100 nM
GI50 [24]: 271 nM
TGI [24]: 8470 nM
GI50 [25]: 570 nM
TGI [25]: 1460 nM
GI50 [26]: 7240 nM
TGI [26]: 17100 nM
GI50 [27]: 9120 nM
TGI [27]: 20200 nM
GI50 [28]: 306 nM
TGI [28]: 8290 nM
GI50 [29]: 267 nM
TGI [29]: 1050 nM
GI50 [30]: 1400 nM
TGI [30]: 12300 nM
GI50 [31]: 1070 nM
TGI [31]: 2720 nM
GI50 [32]: 7230 nM
TGI [32]: 15400 nM
GI50 [33]: 342 nM
TGI [33]: 2870 nM
GI50 [34]: 7250 nM
TGI [34]: 15300 nM
GI50 [35]: 1210 nM
TGI [35]: 4120 nM
GI50 [36]: 531 nM
TGI [36]: 1120 nM
GI50 [37]: 495 nM
TGI [37]: 2400 nM
GI50 [38]: 124 nM
TGI [38]: 1290 nM
GI50 [39]: 9.71 nM
TGI [39]: 1570 nM
GI50 [40]: 61.5 nM
TGI [40]: 4220 nM
GI50 [41]: 1280 nM
TGI [41]: 8240 nM
GI50 [42]: 6270 nM
TGI [42]: 13200 nM
GI50 [43]: 944 nM
TGI [43]: 5900 nM
GI50 [44]: 165 nM
TGI [44]: 1600 nM
GI50 [45]: 521 nM
TGI [45]: 1540 nM
GI50 [46]: 5950 nM
TGI [46]: 14100 nM
GI50 [47]: 491 nM
TGI [47]: 5920 nM
GI50 [48]: 695 nM
TGI [48]: 6820 nM
GI50 [49]: 56.6 nM
TGI [49]: 10500 nM
GI50 [50]: 1790 nM
TGI [50]: 4490 nM
GI50 [51]: 1830 nM
TGI [51]: 8850 nM
GI50 [52]: 8420 nM
TGI [52]: 18400 nM
GI50 [53]: 658 nM
TGI [53]: 9160 nM
GI50 [54]: 81.8 nM
TGI [54]: 759 nM
GI50 [55]: 812 nM
TGI [55]: 3520 nM
GI50 [56]: 6790 nM
TGI [56]: 14600 nM
GI50 [57]: 1300 nM
TGI [57]: 3660 nM

N/C(=N\c1nc2ccccc2s1)NC(=O)Nc1cccc2ccccc12
GI50 [1]: 825 nM
TGI [1]: > 100000 nM
GI50 [3]: 521 nM
TGI [3]: > 100000 nM
GI50 [4]: 209 nM
TGI [4]: > 100000 nM
GI50 [6]: 696 nM
TGI [6]: > 100000 nM
GI50 [7]: 1810 nM
TGI [7]: > 47300 nM
GI50 [8]: 59.1 nM
TGI [8]: > 100000 nM
GI50 [10]: 603 nM
TGI [10]: > 94800 nM
GI50 [11]: 505 nM
TGI [11]: > 100000 nM
GI50 [12]: 318 nM
TGI [12]: > 100000 nM
GI50 [14]: 354 nM
TGI [14]: > 95000 nM
GI50 [15]: 283 nM
TGI [15]: 968 nM
GI50 [16]: 462 nM
TGI [16]: > 100000 nM
GI50 [17]: 1240 nM
TGI [17]: > 100000 nM
GI50 [18]: 462 nM
TGI [18]: > 28400 nM
GI50 [19]: 436 nM
TGI [19]: > 100000 nM
GI50 [58]: 198 nM
TGI [58]: 1100 nM
GI50 [20]: 802 nM
TGI [20]: > 100000 nM
GI50 [21]: 356 nM
TGI [21]: 4200 nM
GI50 [22]: 76.5 nM
TGI [22]: > 100000 nM
GI50 [23]: 600 nM
TGI [23]: > 68900 nM
GI50 [24]: 556 nM
TGI [24]: > 100000 nM
GI50 [27]: 302 nM
TGI [27]: 5410 nM
GI50 [28]: 371 nM
TGI [28]: > 100000 nM
GI50 [30]: 2720 nM
TGI [30]: > 100000 nM
GI50 [32]: 32.1 nM
TGI [32]: 143 nM
GI50 [33]: 144 nM
TGI [33]: 1340 nM
GI50 [34]: 12900 nM
TGI [34]: > 100000 nM
GI50 [35]: 200 nM
TGI [35]: 898 nM
GI50 [36]: 190 nM
TGI [36]: > 100000 nM
GI50 [37]: 360 nM
TGI [37]: > 100000 nM
GI50 [38]: 242 nM
TGI [38]: 768 nM
GI50 [39]: 230 nM
TGI [39]: > 100000 nM
GI50 [40]: 77.5 nM
GI50 [41]: 406 nM
GI50 [42]: 347 nM
TGI [42]: 3720 nM
GI50 [43]: 574 nM
TGI [43]: > 81200 nM
GI50 [44]: 472 nM
TGI [44]: > 100000 nM
GI50 [45]: 636 nM
TGI [45]: 3320 nM
GI50 [46]: 582 nM
TGI [46]: 34000 nM
GI50 [47]: 260 nM
TGI [47]: > 100000 nM
GI50 [48]: 861 nM
TGI [48]: > 100000 nM
GI50 [49]: 173 nM
TGI [49]: 1830 nM
GI50 [50]: 2910 nM
TGI [50]: > 100000 nM
GI50 [52]: 228 nM
TGI [52]: 1090 nM
GI50 [54]: 741 nM
TGI [54]: > 100000 nM
GI50 [55]: 418 nM
TGI [55]: > 100000 nM
GI50 [56]: > 100000 nM
TGI [56]: > 100000 nM
GI50 [57]: 126 nM
TGI [57]: > 100000 nM
